Data on four cell lines can be found in the supplement of paper PMC10307832.

Holding throughout (assay): relative viability (nuclei count vs DMSO), 5 days (fraction); higher = more cells survive
Compound in the assay “Salubrinal + Dasatinib”: O=C(/C=C/c1ccccc1)NC(NC(=S)Nc1cccc2cccnc12)C(Cl)(Cl)Cl [Salubrinal] + Cc1nc(Nc2ncc(C(=O)Nc3c(C)cccc3Cl)s2)cc(N2CCN(CCO)CC2)n1 [Dasatinib] (partner 0.075 µM)
In a few lines: (§1)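 Five library-drug doses in √10 steps were combined with a fixed anchor-drug dose, or a single drug was given alone, by pin tool to lung cancer cell lines in 1536-well plates the day after seeding. Nuclei were stained and counted after 5 days. Relative viability is the nuclei count in treated wells over that in vehicle wells, taken as the median of duplicate plates.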

Compound in assay [1]: Cc1ccc2nc(NCCN)c3ncc(C)n3c2c1 + O=C(CCCCCCC(=O)Nc1ccccc1)NO [Vorinostat] (partner 1 µM)
Put shortly: as §1

Compound in the assay “Salubrinal + Decitabine”: O=C(/C=C/c1ccccc1)NC(NC(=S)Nc1cccc2cccnc12)C(Cl)(Cl)Cl [Salubrinal] + Nc1ncn([C@H]2C[C@H](O)[C@@H](CO)O2)c(=O)n1 [Decitabine] (partner 2 µM)
Put shortly:
as §1

Compound in the assay “Salubrinal + Vorinostat”: O=C(/C=C/c1ccccc1)NC(NC(=S)Nc1cccc2cccnc12)C(Cl)(Cl)Cl [Salubrinal] + O=C(CCCCCCC(=O)Nc1ccccc1)NO [Vorinostat] (partner 1 µM)
Put shortly:
as §1

For PC-3 [JPC-3], the relative viability with Salubrinal + Dasatinib (first compound 0.08 µM) stood at 1.14; in the assay with Salubrinal + Dasatinib (first compound 0.253 µM) it was 0.762; with Salubrinal + Dasatinib (first compound 0.8 µM), 1.1; with Salubrinal + Dasatinib (first compound 2.53 µM), 0.966; with Salubrinal + Dasatinib (first compound 8 µM) it was 0.961; in assay [1] (first compound 0.04 µM), 0.825. Also, the relative viability in assay [1] (first compound 0.1265 µM) was determined as 0.752; in assay [1] (first compound 0.4 µM), 0.709; in assay [1] (first compound 1.265 µM), 0.774; in assay [1] (first compound 4 µM), 0.734; with Salubrinal + Decitabine (first compound 0.08 µM), 0.848; with Salubrinal + Decitabine (first compound 0.253 µM), 0.836. Further, the relative viability is 0.891 with Salubrinal + Decitabine (first compound 0.8 µM); 0.848 with Salubrinal + Decitabine (first compound 2.53 µM); 0.81 with Salubrinal + Decitabine (first compound 8 µM); 0.713 in the assay with Salubrinal + Vorinostat (first compound 0.08 µM); 0.71 in the assay with Salubrinal + Vorinostat (first compound 0.253 µM); 1.07 with Salubrinal + Vorinostat (first compound 0.8 µM). In addition, the relative viability in the assay with Salubrinal + Vorinostat (first compound 2.53 µM) was 0.934; in the assay with Salubrinal + Vorinostat (first compound 8 µM) it was 0.762.
Regarding PC-14, the relative viability in the assay with Salubrinal + Dasatinib (first compound 0.08 µM) stood at 0.313; with Salubrinal + Dasatinib (first compound 0.253 µM) it was 0.252; in the assay with Salubrinal + Dasatinib (first compound 0.8 µM) it was 0.264; with Salubrinal + Dasatinib (first compound 2.53 µM), 0.203; with Salubrinal + Dasatinib (first compound 8 µM), 0.166; in assay [1] (first compound 0.04 µM), 0.766. The relative viability in assay [1] (first compound 0.1265 µM) is 0.693; in assay [1] (first compound 0.4 µM) it was 0.763; in assay [1] (first compound 1.265 µM) it was 0.718; in assay [1] (first compound 4 µM), 0.567; with Salubrinal + Decitabine (first compound 0.08 µM), 0.211; in the assay with Salubrinal + Decitabine (first compound 0.253 µM) it was 0.228. The relative viability with Salubrinal + Decitabine (first compound 0.8 µM) was 0.201; in the assay with Salubrinal + Decitabine (first compound 2.53 µM) it was 0.189; with Salubrinal + Decitabine (first compound 8 µM), 0.236; with Salubrinal + Vorinostat (first compound 0.08 µM), 0.719; with Salubrinal + Vorinostat (first compound 0.253 µM), 0.585; with Salubrinal + Vorinostat (first compound 0.8 µM), 0.672. Moreover, the values for the relative viability in the assay with Salubrinal + Vorinostat (first compound 2.53 µM) and with Salubrinal + Vorinostat (first compound 8 µM) were 0.645 and 0.5, respectively.
Turning to RERF-LC-KJ, the relative viability with Salubrinal + Dasatinib (first compound 0.08 µM) came to 0.928; with Salubrinal + Dasatinib (first compound 0.253 µM), 0.771; in the assay with Salubrinal + Dasatinib (first compound 0.8 µM), 0.92; in the assay with Salubrinal + Dasatinib (first compound 2.53 µM) it was 0.827; in the assay with Salubrinal + Dasatinib (first compound 8 µM), 0.634; in assay [1] (first compound 0.04 µM) it was 0.749. Moreover, the relative viability in assay [1] (first compound 0.1265 µM) was determined as 0.773; in assay [1] (first compound 0.4 µM) it was 0.713; in assay [1] (first compound 1.265 µM), 0.861; in assay [1] (first compound 4 µM), 0.712; in the assay with Salubrinal + Decitabine (first compound 0.08 µM), 0.834; with Salubrinal + Decitabine (first compound 0.253 µM), 0.605. Besides, the relative viability with Salubrinal + Decitabine (first compound 0.8 µM) was determined as 0.792; in the assay with Salubrinal + Decitabine (first compound 2.53 µM), 0.697; with Salubrinal + Decitabine (first compound 8 µM), 0.598; with Salubrinal + Vorinostat (first compound 0.08 µM), 0.784; with Salubrinal + Vorinostat (first compound 0.253 µM), 0.642; with Salubrinal + Vorinostat (first compound 0.8 µM), 0.745. Also, the figures for the relative viability with Salubrinal + Vorinostat (first compound 2.53 µM) and with Salubrinal + Vorinostat (first compound 8 µM) were 0.673 and 0.721, respectively.
Consider SK-LU-1, for which the relative viability with Salubrinal + Dasatinib (first compound 0.08 µM) was determined as 0.188; in the assay with Salubrinal + Dasatinib (first compound 0.253 µM), 0.22; with Salubrinal + Dasatinib (first compound 0.8 µM), 0.181; with Salubrinal + Dasatinib (first compound 2.53 µM), 0.172; with Salubrinal + Dasatinib (first compound 8 µM) it was 0.176; in assay [1] (first compound 0.04 µM) it was 0.851. Moreover, the relative viability in assay [1] (first compound 0.1265 µM) came out at 0.725; in assay [1] (first compound 0.4 µM) it was 0.784; in assay [1] (first compound 1.265 µM) it was 0.856; in assay [1] (first compound 4 µM) it was 0.734; with Salubrinal + Decitabine (first compound 0.08 µM), 0.609; in the assay with Salubrinal + Decitabine (first compound 0.253 µM) it was 0.597. Also, the relative viability with Salubrinal + Decitabine (first compound 0.8 µM) was 0.739; in the assay with Salubrinal + Decitabine (first compound 2.53 µM), 0.685; in the assay with Salubrinal + Decitabine (first compound 8 µM) it was 0.506; with Salubrinal + Vorinostat (first compound 0.08 µM), 0.754; with Salubrinal + Vorinostat (first compound 0.253 µM), 0.668; in the assay with Salubrinal + Vorinostat (first compound 0.8 µM) it was 0.996. In addition, the figures for the relative viability with Salubrinal + Vorinostat (first compound 2.53 µM) and with Salubrinal + Vorinostat (first compound 8 µM) were 0.779 and 0.664, respectively.
